This note sets out measurements from article PMC8831599, “Defining molecular glues with a dual-nanobody cannabidiol sensor” (Nature Communications, 2022).

For experiment [1], the target named is T1, CA14 (anchor binder nanobody).
T1 construct: nanobody CA14, tag-free; CA14 alone in ITC
Nature of the experiment: ITC; […] Å crystal structure of the CA14-CBD-DB21 ternary complex. Type of experiment: binding. On the technique in general: ITC needs no label: the signal is the heat of the interaction.

The target in the next experiment is T2, TIR1 (Arabidopsis thaliana, UniProt Q570C0).
T2 construct: TIR1-ASK1 co-expressed complex; with ASK1
Nature of the experiment: ITC; BLI and AlphaScreen with IAA7 degron. Type of experiment: binding.

T2 sequence (Q39255 whole entry): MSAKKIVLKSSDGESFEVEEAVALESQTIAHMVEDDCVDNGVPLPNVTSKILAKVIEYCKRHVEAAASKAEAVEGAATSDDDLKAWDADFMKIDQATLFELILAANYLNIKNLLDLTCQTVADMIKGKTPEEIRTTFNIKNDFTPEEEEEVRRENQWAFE
T2 sequence (Q570C0 whole entry): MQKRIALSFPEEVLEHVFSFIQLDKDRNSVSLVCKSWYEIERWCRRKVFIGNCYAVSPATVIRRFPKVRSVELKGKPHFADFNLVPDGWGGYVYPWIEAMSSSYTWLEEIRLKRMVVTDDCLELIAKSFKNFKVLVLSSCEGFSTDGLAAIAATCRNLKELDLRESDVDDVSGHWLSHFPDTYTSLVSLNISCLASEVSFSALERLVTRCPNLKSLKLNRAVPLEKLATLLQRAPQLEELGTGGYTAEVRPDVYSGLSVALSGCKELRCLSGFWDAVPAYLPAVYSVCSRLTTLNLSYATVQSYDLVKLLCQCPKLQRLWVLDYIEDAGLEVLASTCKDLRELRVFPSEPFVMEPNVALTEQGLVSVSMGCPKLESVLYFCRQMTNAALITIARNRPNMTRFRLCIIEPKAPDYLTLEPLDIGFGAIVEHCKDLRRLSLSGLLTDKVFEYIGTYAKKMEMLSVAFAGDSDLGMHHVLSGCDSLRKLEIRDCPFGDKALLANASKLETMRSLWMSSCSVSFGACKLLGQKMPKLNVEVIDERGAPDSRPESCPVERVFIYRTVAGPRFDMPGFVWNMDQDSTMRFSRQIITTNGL

As a reminder, the Kd is a measure of binding affinity in units of concentration. Higher therefore signals a looser complex. In experiment [1], `C=C(C)[C@@H]1CCC(C)=C[C@H]1c1c(O)cc(CCCCC)cc1O` [CBD, cannabidiol] yielded a Kd of 2.2 µM.

`O=C(O)Cc1c[nH]c2ccccc12` [auxin] showed a Kd at TIR1 of 13.4 µM.
